The values that follow are results of earlier work, collected in patent publication US20090239822A1, “Process for the preparation of esters of diacerein with hyaluronic acid and pharmaceutical compositions containing such esters” (priority 2006, published 2009).

For this data set the following is noted: rhein from the pro-drug diacerein.

Turning to `O=C(O)c1cc(O)c2c(c1)C(=O)c1cccc(O)c1C2=O` [rhein], the concentration in the synovial liquid is 1 to 10 µM.
